Results from patent publication US10030027B2, “Soluble guanylate cyclase stimulators” (MERCK SHARP & DOHME CORP., priority 2015, dated 2018).
Read-outs that look alike come from different tables or passages of the source.

Assays:
sGC α1/β1 heterodimer = sGC α1/β1 heterodimer (Homo sapiens (Human), UniProt Q02108+Q02153); test: Cell-based sGC functional assay (cyclic GMP assay for sGC activator: CASA assay); parameters: % Activation: concentration or dose not given beside the values; conditions: CHO-K1/sGC cells; for Emax: read-out: % Activation; for EC50: inflection point, 4P fit, read-out: IP
Summary of the method: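 CHO-K1 cells stably expressing sGC α1/β1 were pre-incubated with or without 1 μM DETA-NO (30 min, 25 °C), then exposed to compounds for 1 hr at 37 °C with 0.5 mM IBMX. Intracellular cGMP was read by HTRF and expressed as a percentage of a reference heme-dependent activator's maximum.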

[1] = target: human recombinant sGC enzyme (Homo sapiens (Human), UniProt Q02108+Q02153); test: Size Exclusion Chromatography (SEC) competition binding assay using [3H] Ex-77B as the radioligand; conditions: [3H] Ex-77B radioligand, 24 hours at 37° C.
Summary of the method: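 Recombinant human sGC binding measured by competition against tritiated Ex-77B radioligand, with non-specific binding defined by 1 μM unlabeled Ex-77B.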

[2] = CHO-K1, activity expressed as percentage of compound A (standard)
[3] = activity expressed as percentage of compound A (standard)

| Structure (SMILES) | Emax (sGC α1/β1 heterodimer; [2]) [%] | EC50 (sGC α1/β1 heterodimer) [nM] | Ki [1] [nM] | % Activation (sGC α1/β1 heterodimer; [3]) [%] | Emax (sGC α1/β1 heterodimer; [3]) [%] |
| --- | --- | --- | --- | --- | --- |
| CC1(c2ccc(CCC(=O)O)c(O)c2)C(=O)Nc2nc(-c3nn(CCC(F)(F)C(F)(F)F)c4cc(Cl)ccc34)nc(N)c21 (stereo not shown) [Example 122B, 3-(4-{4-Amino-2-[6-chloro-1-(3,3,4,4,4-pentafluorobutyl)-1H-indazol-3-yl]-5-methyl-6-oxo-6,7-dihydro-5H-pyrrolo[2,3-d]pyrimidin-5-yl}-2-hydroxyphenyl)propanoic acid] | 115 | 895 | 0.326 |  |  |
| CC1(c2nc3cc(C(=O)O)ccc3o2)C(=O)Nc2nc(-c3nn(Cc4ccccc4F)c4cc(Cl)ccc34)nc(N)c21 (stereo not shown) [Example 168B, 2-{4-amino-2-[6-chloro-1-(2-fluorobenzyl)-1H-indazol-3-yl]-5-methyl-6-oxo-6,7-dihydro-5H-pyrrolo[2,3-d]pyrimidin-5-yl}-1,3-benzoxazole-5-carboxylic acid] | 141 | 207 | 0.164 |  |  |
| CC1(c2ccc(CCP(=O)(O)O)cc2)C(=O)Nc2nc(-c3nn(Cc4ccccc4F)c4cc(Cl)ccc34)nc(N)c21 (stereo not shown) [Example 257A, [2-(4-{4-Amino-2-[6-chloro-1-(2-fluorobenzyl)-1H-indazol-3-yl]-5-methyl-6-oxo-6,7-dihydro-5H-pyrrolo[2,3-d]pyrimidin-5-yl}phenyl)ethyl]phosphonic acid] | 84.7 | 106 | 0.105 |  |  |
| CC1CCC(Cn2nc(-c3nc(N)c4c(n3)NC(=O)[C@@]4(C)c3ccc(CCC(=O)O)cc3)c3ccc(Cl)cc32)CC1 (single isomer, unassigned) [Example 5BB] |  | 330 | 0.182 | 107 |  |
| CC1(c2cccc(-c3nn[nH]n3)n2)C(=O)Nc2nc(-c3nn(Cc4ccccc4F)c4cc(Cl)ccc34)nc(N)c21 (single isomer, unassigned) [Example 253A, 5-[6-(2H-tetrazol-5-yl)pyridin-2-yl]-4-amino-2-[6-chloro-1-(2-fluorobenzyl)-1H-indazol-3-yl]-5-methyl-5,7-dihydro-6H-pyrrolo[2,3-d] pyrimidin-6-one] |  | 3630 | 0.146 |  |  |
| C[C@@]1(c2ccc(CCC(=O)O)cc2)C(=O)Nc2nc(-c3nn(Cc4ccc(F)cc4)c4ccccc34)nc(N)c21 (single isomer, unassigned) [Example 221B] | 92.1 | 150 | 0.163 |  |  |
| CC1(c2cnn(CCC(=O)O)n2)C(=O)Nc2nc(-c3nn(CCC(F)(F)C(F)(F)F)c4ncccc34)nc(N)c21 (stereo not shown) [Example 109B, 3-(4-{4-Amino-5-methyl-6-oxo-2-[1-(3,3,4,4,4-pentafluorobutyl)-1H-pyrazolo[3,4-b]pyridin-3-yl]-6,7-dihydro-5H-pyrrolo[2,3-d]pyrimidin-5-yl}-2H-1,2,3-triazol-2-yl)propanoic acid] | 78 | 1660 | 2 |  |  |
| Cc1ccc(F)c(Cn2nc(-c3nc(N)c4c(n3)NC(=O)[C@@]4(C)c3nc(CC(C)(C)C(=O)O)cs3)c3ccc(Cl)cc32)c1 (single isomer, unassigned) [Example 214A] | 116 | 320 | 0.267 |  |  |
| CC(C)(Cc1nc(C2(C)C(=O)Nc3nc(-c4nn(Cc5ccccc5F)c5cc(Cl)ccc45)nc(N)c32)cs1)C(=O)O (stereo not shown) [Example 142B, 3-(4-{4-amino-2-[6-chloro-1-(2-fluoro-benzyl)-1H-indazol-3-yl]-5-methyl-6-oxo-6,7-dihydro-5H-pyrrolo[2,3-d]pyrimidin-5-yl}-1,3-thiazol-2-yl)-2,2-dimethyl-propanoic acid] | 109 | 264 | 0.183 |  |  |
| C[C@@]1(c2ccc(CCc3noc(=O)[nH]3)cc2)C(=O)Nc2nc(-c3nn(Cc4ccccc4F)c4cc(Cl)ccc34)nc(N)c21 [Example 256B, (S)-4-Amino-2-[6-chloro-1-(2-fluorobenzyl)-1H-indazol-3-yl]-5-methyl-5-{4-[2-(5-oxo-4,5-dihydro-1,2,4-oxadiazol-3-yl)ethyl]phenyl}-5,7-dihydro-6H-pyrrolo[2,3-d]pyrimidin-6-one] |  | 2050 | 0.074 |  | 104 |
| Cc1ccc(F)c(Cn2nc(-c3nc(N)c4c(n3)NC(=O)C4(C)c3nc(CC(C)(C)C(=O)O)co3)c3ccc(Cl)cc32)c1 (stereo not shown) [Example 213A, 3-(2-{4-amino-2-[6-chloro-1-(2-fluoro-5-methyl-benzyl)-1H-indazol-3-yl]-5-methyl-6-oxo-6,7-dihydro-5H-pyrrolo[2,3-d]pyrimidin-5-yl} 1,3-oxazol-4-yl)-2,2-dimethyl-propanoic acid] | 94.9 | 839 | 0.123 |  |  |
| COCCn1nc(-c2nc(N)c3c(n2)NC(=O)C3(C)c2cccc(CC(C)(C)C(=O)O)c2)c2ccc(Cl)cc21 (stereo not shown) [Example 39B, 3-(3-{4-amino-2-[6-chloro-1-(2-methoxyethyl)-1H-indazol-3-yl]-5-methyl-6-oxo-6,7-dihydro-5H-pyrrolo[2,3-d]pyrimidin-5-yl}phenyl)-2,2-dimethylpropanoic acid] | 82 | 1090 | 3.65 |  |  |
| CC(C)(CCc1csc(C2(C)C(=O)Nc3nc(-c4nn(Cc5ccccc5F)c5ccccc45)nc(N)c32)n1)C(=O)O (stereo not shown) [Example 204A, 4-(2-{4-amino-2-[1-(2-fluorobenzyl)-1H-indazol-3-yl]-5-methyl-6-oxo-6,7-dihydro-5H-pyrrolo[2,3-d]pyrimidin-5-yl}-1,3-thiazol-4-yl)-2,2-dimethyl-butanoic acid] | 97.8 | 47 | 0.269 |  |  |
| C[C@@]1(c2ccc(CCC(=O)O)cc2)C(=O)Nc2nc(-c3nn(Cc4ncccc4F)c4ccccc34)nc(N)c21 [Example 232B, (S)-3-{4-[4-amino-2-{1-[(3-fluoropyridin-2-yl)methyl]-1H-indazol-3-yl}-5-methyl-6-oxo-6,7-dihydro-5H-pyrrolo[2,3-d]pyrimidin-5-yl]phenyl}propanoic acid] | 89.1 | 4150 | 0.085 |  |  |
| CC1(c2ccc(/C=C/C(=O)O)cc2)C(=O)Nc2nc(-c3nn(Cc4ccccc4F)c4cc(Cl)ccc34)nc(N)c21 (stereo not shown) [Example 218A, (2E)-3-(4-{4-amino-2-[6-chloro-1-(2-fluorobenzyl)-1H-indazol-3-yl]-5-methyl-6-oxo-6,7-dihydro-5H-pyrrolo[2,3-d]pyrimidin-5-yl}phenyl)prop-2-enoic acid] | 103 | 301 | 0.057 |  |  |
| Cc1cccc(Cn2nc(-c3nc(N)c4c(n3)NC(=O)C4(C)c3nc(CC(C)(C)C(=O)O)co3)c3ccccc32)c1 (stereo not shown) [Example 226A, 3-(2-{4-amino-5-methyl-2-[1-(3-methylbenzyl)-1H-indazol-3-yl]-6-oxo-6,7-dihydro-5H-pyrrolo[2,3-d]pyrimidin-5-yl}-1,3-oxazol-4-yl)-2,2-dimethyl-propanoic acid] | 112 | 355 | 0.176 |  |  |
| Nc1nc(-c2nn(Cc3ccccc3F)c3ncccc23)nc2c1C(c1ccc(CCC(=O)O)cc1)(C1CC1)C(=O)N2 (stereo not shown) [Example 148A, 3-(4-{4-amino-5-cyclopropyl-2-[1-(2-fluorobenzyl)-1H-pyrazolo[3,4-b]pyridin-3-yl]-6-oxo-6,7-dihydro 5H-pyrrolo[2,3-d]pyrimidin-5-yl}phenyl)propanoic acid] | 87.8 | 238 | 0.123 |  |  |
| CC1(c2cccc(-c3nn[nH]n3)c2)C(=O)Nc2nc(-c3nn(CCC(F)(F)C(F)(F)F)c4ncccc34)nc(N)c21 (single isomer, unassigned) [Example 252B, 4-amino-5-methyl-2-[1-(3,3,4,4,4-pentafluorobutyl)-1H-pyrazolo[3,4-b]pyridin-3-yl]-5-[3-(2H-tetrazol-5-yl)phenyl]-5,7-dihydro-6H-pyrrolo[2,3-d] pyrimidin-6-one] |  | 2460 | 0.292 |  |  |
| CC(C)(Cc1coc(C2(C)C(=O)Nc3nc(-c4nn(Cc5ccccc5F)c5ccccc45)nc(N)c32)n1)c1nn[nH]n1 (stereo not shown) [Example 248B, 4-Amino-2-[1-(2-fluorobenzyl)-1H-indazol-3-yl]-5-methyl-5-{4-[2-methyl-2-(2H-tetrazol-5-yl)propyl]oxazol-2-yl}-5,7-dihydro-6H-pyrrolo[2,3-d]pyrimidin-6-one] | 106 | 116 | 0.048 |  |  |
| CC1(N2CCC(CCC(=O)O)CC2)C(=O)Nc2nc(-c3nn(Cc4ccccc4F)c4cc(Cl)ccc34)nc(N)c21 (stereo not shown) [Example 262B, 3-(1-{4-Amino-2-[6-chloro-1-(2-fluorobenzyl)-1H-indazol-3-yl]-5-methyl-6-oxo-6,7-dihydro-5H-pyrrolo[2,3-d]pyrimidin-5-yl}piperidin-4-yl)propanoic acid] | 82.4 | 27 | 0.097 |  |  |
| C[C@@]1(c2nc(CCC(=O)O)cs2)C(=O)Nc2nc(-c3nn(CCCC(F)(F)F)c4ncccc34)nc(N)c21 [Example 88B, (S)-3-(2-{4-amino-5-methyl-6-oxo-2-[1-(4,4,4-trifluorobutyl)-1H-pyrazolo[3,4-b]pyridin-3-yl]-6,7-dihydro-5H-pyrrolo[2,3-d]pyrimidin-5-yl}-1,3-thiazol-4-yl)propanoic acid] | 88 | 1250 | 0.848 |  |  |
| CC(C)(Cc1csc([C@]2(C)C(=O)Nc3nc(-c4nn(Cc5c(F)ccc(F)c5F)c5cc(Cl)ccc45)nc(N)c32)n1)C(=O)O [Example 190A, (S)-3-(2-{4-amino-2-[6-chloro-1-(2,3,6-trifluoro-benzyl)-1H-indazol-3-yl]-5-methyl-6-oxo-6,7-dihydro-5H-pyrrolo[2,3-d]pyrimidin-5-yl}-1,3-thiazol-4-yl)-2,2-dimethyl-propanoic acid] | 120 | 49 | 0.031 |  |  |
